Source: PubChem BioAssay (NCI)
Where “and” joins values, the source holds several entries; their conditions need not be identical. Equal values may be shown once.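 Five concentrations, 48 hours, 96-well plates. The concentration for 50% growth inhibition is given as GI50. TGI is the concentration that stops growth completely.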

Experiments:
Experiment in all cases: DTP human tumour cell line panel, 48 h
A498 renal = test system: A498 renal
ACHN renal = test system: ACHN renal
CAKI-1 renal = test system: CAKI-1 renal
HCC-2998 colon = test system: HCC-2998 colon
M14 melanoma = test system: M14 melanoma
RPMI-8226 leukemia = test system: RPMI-8226 leukemia
SF-539 CNS = test system: SF-539 CNS
SK-MEL-28 melanoma = test system: SK-MEL-28 melanoma
SK-MEL-5 melanoma = test system: SK-MEL-5 melanoma
NCI-H23 lung = test system: NCI-H23 lung

Row | SMILES | TGI (A498 renal) | TGI (ACHN renal) [µM] | TGI (CAKI-1 renal) | TGI (HCC-2998 colon) | TGI (M14 melanoma) [µM] | TGI (RPMI-8226 leukemia) [µM] | TGI (SF-539 CNS) | TGI (SK-MEL-28 melanoma) | TGI (SK-MEL-5 melanoma) | GI50 (A498 renal) [µM] | GI50 (ACHN renal) [µM] | GI50 (CAKI-1 renal) [µM] | GI50 (HCC-2998 colon) [µM] | GI50 (M14 melanoma) [µM] | GI50 (NCI-H23 lung) | TGI (NCI-H23 lung) | GI50 (RPMI-8226 leukemia) [µM] | GI50 (SF-539 CNS) [µM] | GI50 (SK-MEL-28 melanoma) [µM] | GI50 (SK-MEL-5 melanoma) [µM]
1 | CCCC(=O)N[C@H]1C2C3CC4C5CC(C42)C1(C)C53 (stereo not given in full) | > 100 µM | > 100 | > 100 µM | > 100 µM | > 100 | > 100 | > 100 µM | > 100 µM | > 100 µM | – | – | – | – | – | – | – | – | – | – | –
2 | O=C([O][Sn]([O]C(=O)c1ccccn1)([c]1ccccc1)[c]1ccccc1)c1ccccn1 | 6.56 µM | 21.2 | 3.98 µM | 26 µM | 15.8 | 6.13 | 19.7 µM | 13.3 µM | 24.4 µM | 1.87 | 9.36 | 1.61 | 13.1 | 4.56 | 3.08 µM | 12.8 µM | 1.86 | 6.65 | 3.4 | 12.1
3 | C=C1C(=O)OC2CC(C)C3CC(O)OC(OCC)C3(C)CC12 (stereo not given) | > 69.1 µM | 39.5 | 42.9 µM | 30.6 µM | 28.5 | 51 | 35.4 µM | 27.5 µM | 31.7 µM | – | – | – | – | – | – | 30.9 µM | – | – | – | –
4 | CC(C)=CCC(OC(=O)C=C(C)C)C1=CC(=O)c2c(O)ccc(O)c2C1=O (stereo not given) | 39 µM and 5.39 µM | 2.53 | 3.12 µM and 2 µM | 26.7 µM and 6.44 µM | 9.57 | – | 4.46 µM and 4.93 µM | 2.52 µM and 2.67 µM | 14.4 µM and 1.59 µM | 20 | 0.605 | – | 12.7 | 3.51 | 2.46 µM and 1.06 µM | 7.06 µM and 2.96 µM | 0.724 | 2.02 | 1.01 | 4.15
5 | CC1=Nc2ccccc2/C1=C\c1c(C)[nH]c2ccccc12 | 38 µM | 29.5 | 29.1 µM | 30.1 µM | > 100 | 88.1 | 77.3 µM | 37.9 µM | 28.1 µM | – | – | – | – | – | – | 38.6 µM | – | – | – | –
6 | S=c1nc(N/N=C/c2ccco2)c2cn[nH]c2[nH]1 | 22.5 µM | > 100 | > 100 µM | 88.7 µM | > 100 | > 100 | > 100 µM | > 100 µM | > 100 µM | 3.23 | > 100 | 52.9 | 22.4 | > 100 | > 100 µM | > 100 µM | 18.2 | 43.3 | > 100 | 28.2
7 | Cc1nc2ccc(NC(=O)CCNC(=O)CCCc3ccc(CC(C(=O)O)C(=O)O)cc3)cc2s1 | > 100 µM | > 100 | > 100 µM | > 100 µM | > 100 | > 100 | > 100 µM | > 100 µM | > 100 µM | > 100 | > 100 | > 100 | > 100 | > 100 | > 100 µM | > 100 µM | > 100 | > 100 | > 100 | > 100
8 | OCc1ccc(-c2cscc2-c2ccc(CO)o2)o1 | 0.0381 µM | > 100 | > 100 µM | > 96.6 µM | > 100 | > 100 | > 100 µM | > 100 µM | > 100 µM | 0.0156 | > 100 | 5 | 24.2 | > 100 | 64.6 µM | > 100 µM | 28.4 | > 100 | > 100 | 16.2
9 | O=c1/c(=C\c2ccc(F)cc2)sc2n1C(c1ccc(F)cc1)C1=C(N=2)c2ccc3ccccc3c2OCC1 (stereo not given) | > 100 µM | > 100 | > 66.9 µM | > 100 µM | > 100 | > 100 | > 100 µM | > 100 µM | > 100 µM | > 100 | > 100 | – | > 100 | > 100 | > 100 µM | > 100 µM | > 100 | > 100 | > 100 | > 100
10 | CN1CCc2c1nc(-c1ccc(Cl)cc1)c1c2N(C)CC1 | 62.6 µM | 55.6 | 29.9 µM | 65 µM | 20.4 | 37.1 | 32.9 µM | – | 26.6 µM | – | – | – | – | – | – | 49.9 µM | – | – | – | –
11 | Cc1c(NC(=S)NC(=O)c2ccc([N+](=O)[O-])cc2)c(=O)n(-c2ccccc2)n1C | > 100 µM | > 100 | > 100 µM | > 100 µM | > 100 | > 100 | > 100 µM | > 100 µM | > 100 µM | – | – | – | – | – | – | > 100 µM | – | – | – | –
12 | C=CC(=O)Nc1cc(N2CCN(CC)CC2)ccc1Nc1cc(N(C)C(=O)Nc2c(Cl)c(OC)cc(OC)c2Cl)ncn1 | 8.53 µM | 23.8 | 23.1 µM | 6.3 µM | 18.7 | 7.22 | 15.2 µM | 4.53 µM | 23.9 µM | 2.18 | 11.5 | 11.1 | 2.49 | 4.85 | 4.36 µM | 20 µM | 2.37 | 3.53 | 2.03 | 11.3
13 | COc1ccc(-c2nc(-c3nc4ccc(F)cc4[nH]3)c3ccccn23)cc1 | 31.8 µM | 25.9 | > 100 µM | > 100 µM | > 100 | > 100 | 45.2 µM | > 100 µM | 6.71 µM | 3.83 | 4.28 | 12.1 | 6.59 | 12.9 | 18.7 µM | > 100 µM | 2.86 | 10.4 | 22.8 | 2.2
14 | COc1cc2c(cc1O)CC1c3c(cc(O)c(OC)c3-2)CCN1C (stereo not given) | > 100 µM | > 100 | > 100 µM | > 100 µM | > 100 | > 100 | > 100 µM | > 100 µM | > 100 µM | – | – | – | – | – | – | > 100 µM | – | – | – | –
15 | CC1=Cc2ccc(C)cc2C(=O)C1=O | 51.6 µM | 4.14 | 36.3 µM | 30.8 µM | 10.5 | 7.34 | 14.9 µM | 52.9 µM | 42.2 µM | – | – | – | – | – | – | 45.3 µM | – | – | – | –
16 | CC(C)Cc1ccc(C(C)CC2=CCC(CN(C)C)C2=O)cc1 (stereo not given) | 33.4 µM | 30.4 | 3.28 µM | 17 µM | 17.2 | 5.24 | 30.9 µM | 21.9 µM | 28.9 µM | – | – | – | – | – | – | 28.2 µM | – | – | – | –
